In general, IC50 refers to the midpoint of a concentration-inhibition curve.

The target in this assay is T1, ENPP1 (ectonucleotide pyrophosphatase/phosphodiesterase 1) (Mus musculus, UniProt P06802).
T1 sequence (P06802 1-906): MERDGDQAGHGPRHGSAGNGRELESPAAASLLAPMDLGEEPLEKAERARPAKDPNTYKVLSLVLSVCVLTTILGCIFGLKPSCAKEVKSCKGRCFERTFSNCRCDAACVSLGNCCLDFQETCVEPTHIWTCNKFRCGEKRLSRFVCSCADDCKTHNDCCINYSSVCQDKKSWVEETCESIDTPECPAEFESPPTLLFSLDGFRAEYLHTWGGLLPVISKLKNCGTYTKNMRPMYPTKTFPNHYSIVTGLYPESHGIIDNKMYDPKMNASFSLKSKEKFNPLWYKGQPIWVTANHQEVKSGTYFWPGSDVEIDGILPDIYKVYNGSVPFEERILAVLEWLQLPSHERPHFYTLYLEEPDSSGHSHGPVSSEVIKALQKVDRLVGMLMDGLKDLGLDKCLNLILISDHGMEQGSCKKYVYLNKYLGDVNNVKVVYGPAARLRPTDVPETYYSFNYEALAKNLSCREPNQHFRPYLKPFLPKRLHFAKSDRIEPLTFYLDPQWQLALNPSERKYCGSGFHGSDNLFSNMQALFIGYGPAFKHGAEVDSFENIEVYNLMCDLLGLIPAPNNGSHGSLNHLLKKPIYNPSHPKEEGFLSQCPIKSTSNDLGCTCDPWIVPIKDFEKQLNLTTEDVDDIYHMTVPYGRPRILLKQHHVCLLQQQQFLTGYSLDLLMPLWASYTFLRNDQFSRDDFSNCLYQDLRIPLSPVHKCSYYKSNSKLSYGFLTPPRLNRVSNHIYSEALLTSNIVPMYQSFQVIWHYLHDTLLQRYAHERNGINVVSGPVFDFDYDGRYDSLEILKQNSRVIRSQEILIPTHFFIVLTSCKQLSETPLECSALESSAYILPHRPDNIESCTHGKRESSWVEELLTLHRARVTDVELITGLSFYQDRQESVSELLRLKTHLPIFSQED
In words: Transcreener AMP/GMP TR-FRET enzymatic assay, […] mouse ENPP1 protein, […] ATP. The class given is biochemical.

REV102 had an IC50 of 6.3 nM.

Source of the values: publication PMC13017400, “ENPP1 inhibition as a therapeutic approach for later-onset hypophosphatasia” (Journal of Bone and Mineral Research, 2025).
